According to ChEMBL document CHEMBL1128817, “Synthesis of bisindolylmaleimide macrocycles” (Bioorg Med Chem Lett, 1995):
pIC50: −log10 of the molar value.

How the values were obtained:
[1] = Selectivity ratio of IC50 of PKA to PKC
Protein kinase C (PKC) = experiment: Inhibition of rat brain PKC
[2] = Selectivity ratio of IC50 of PKCalpha to PKCbeta II
[3] = target: Protein kinase C beta type (Homo sapiens, UniProt P05771); experiment: Inhibition of Protein kinase C beta 2
Protein kinase C beta type, sequence (P05771 whole entry): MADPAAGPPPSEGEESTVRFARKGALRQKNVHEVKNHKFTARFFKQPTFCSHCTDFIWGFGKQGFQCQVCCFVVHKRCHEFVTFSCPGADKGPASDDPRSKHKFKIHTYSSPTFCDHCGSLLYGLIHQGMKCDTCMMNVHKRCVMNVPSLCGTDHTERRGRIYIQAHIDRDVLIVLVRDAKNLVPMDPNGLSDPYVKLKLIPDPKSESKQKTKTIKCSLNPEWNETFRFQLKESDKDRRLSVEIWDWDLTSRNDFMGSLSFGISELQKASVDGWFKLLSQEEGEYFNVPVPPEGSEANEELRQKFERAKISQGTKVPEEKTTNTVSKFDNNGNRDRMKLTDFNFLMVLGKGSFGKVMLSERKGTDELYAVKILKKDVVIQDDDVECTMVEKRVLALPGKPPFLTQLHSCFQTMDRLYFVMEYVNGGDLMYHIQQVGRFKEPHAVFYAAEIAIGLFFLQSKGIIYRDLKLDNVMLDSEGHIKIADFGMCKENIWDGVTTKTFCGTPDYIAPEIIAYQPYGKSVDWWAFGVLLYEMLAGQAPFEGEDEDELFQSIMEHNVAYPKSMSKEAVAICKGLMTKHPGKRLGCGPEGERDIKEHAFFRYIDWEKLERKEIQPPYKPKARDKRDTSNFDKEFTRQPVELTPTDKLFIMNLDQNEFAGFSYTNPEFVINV

O=C1NC(=O)C2=C1c1cn(c3ccccc13)CCCOC(CO)CCn1cc2c2ccccc21 (centres undefined)
Ratio [1]: > 10000 | IC50 (Protein kinase C (PKC)): 6.4 µM | Ratio [2]: 25 | pIC50 [3]: 6.57
